These results are taken from ChEMBL document CHEMBL1770128, “Synthesis and antifungal activities of novel 5,6-dihydro-indolo[1,2-a]quinoxaline derivatives” (2011).

What all share (format): functional
The subject of test [1] is Alternaria alternata. As to the kind of experiment: Antimicrobial activity against Alternaria alternata at 50 ug/ml […] by poisoned food technique. To be noted: 120 h.
The subject of test [2] is Pyricularia oryzae. The experiment in a line: Antimicrobial activity against Pyricularia oryzae at 50 ug/ml after 5 days by poisoned food technique. To be noted: 120 h.
In test [3] the test system is Fusarium oxysporum f. sp. vasinfectum. As to the kind of experiment: Antimicrobial activity against Fusarium oxysporum f. sp. vasinfectum at 50 ug/ml […] by poisoned food technique. To be noted: 120 h.
In test [4] the test system is Alternaria brassicae. As to the kind of experiment: Antimicrobial activity against Alternaria brassicae at 50 ug/ml […] by poisoned food technique.
Test [5] concerns Fusarium graminearum. As to the kind of experiment: Antimicrobial activity against Fusarium graminearum at 50 ug/ml after 5 days by poisoned food technique. To be noted: 120 h.

A word on the inhibition: it is the share of the control response that was lost under treatment. High values mean a response far below the control, low ones a response near the control. In the case of `Cc1cccc2c1cc1n2-c2ccccc2NC1c1ccccc1O` (stereo not given), the inhibition at 50 µg/mL in test [1] is 12%; in test [2], 7.8%; in test [3], 11.7%; in test [4] it was 55.8%; in test [5], 8.8%.
Regarding `Cc1c2n(c3ccccc13)-c1ccccc1NC2c1ccc([N+](=O)[O-])cc1` (stereo not given), the inhibition at 50 µg/mL in test [1] amounted to 18.2%; in test [2], 11.8%; in test [3], 11.4%; in test [4], 13.3%; in test [5], 26.6%.
As to `COc1cc(C2Nc3ccccc3-n3c2cc2c(C)cccc23)ccc1O` (stereo not given), the inhibition at 50 µg/mL in test [1] was 17.9%; in test [2], 16%; in test [3], 20.2%; in test [4] it was 21%; in test [5], 12.3%.
`Cc1c2n(c3ccccc13)-c1ccccc1NC2c1ccc(O)cc1` (stereo not given): the inhibition at 50 µg/mL in test [1] worked out at 55.6%; in test [2] it was 46.5%; in test [3], 44%; in test [4], 53%; in test [5], 48%.
Taken in the same sequence, the figures for `COc1cc(C2Nc3ccccc3-n3c2cc2ccccc23)ccc1O` (stereo not given) were 9.2%, 4.4%, 11%, 15.7% and 15.7%.
In the case of `Cc1cccc2c1cc1n2-c2ccccc2NC1c1ccc(N(C)C)cc1` (stereo not given), the inhibition at 50 µg/mL in test [1] came out at 19.8%; in test [2], 7.7%; in test [3] it was 6.9%; in test [4] it was 10.4%; in test [5] it was 17.6%.
`Cc1cccc2c1cc1n2-c2ccccc2NC1c1ccccc1` (stereo not given): the inhibition at 50 µg/mL in test [1] was found to be 29.2%; in test [2], 22.1%; in test [3], 8.8%; in test [4], 30.4%; in test [5], 32%.
As to `Cc1cccc2c1cc1n2-c2ccccc2NC1(C)c1ccccc1` (stereo not given), the inhibition at 50 µg/mL worked out at 32.7% in test [1]; 34.6% in test [2]; 23.6% in test [3]; 29.9% in test [4]; 43% in test [5].
On to `N#Cc1ccc2c(c1)cc1n2-c2ccccc2NC1c1ccc([N+](=O)[O-])cc1` (stereo not given), for which the inhibition at 50 µg/mL is 64.6% in test [1]; 62.8% in test [2]; 60.8% in test [3]; 52.4% in test [4]; 56.3% in test [5].
Turning to `Cc1cccc2c1cc1n2-c2ccccc2NC1c1ccc([N+](=O)[O-])cc1` (stereo not given), the inhibition at 50 µg/mL was determined as 17.7% in test [1]; 10.1% in test [2]; 5.3% in test [3]; 10.4% in test [4]; 24.6% in test [5].
Consider `COc1ccc(C2Nc3ccccc3-n3c2cc2c(C)cccc23)cc1` (stereo not given), for which the inhibition at 50 µg/mL came out at 14.9% in test [1]; 15.1% in test [2]; 9.7% in test [3]; 7.2% in test [4]; 12.2% in test [5].
Turning to `O=[N+]([O-])c1ccc(C2Nc3ccccc3-n3c2cc2ccccc23)cc1` (stereo not given), the inhibition at 50 µg/mL worked out at 19.4% in test [1]; 5.8% in test [2]; 9.2% in test [3]; 11.2% in test [4]; 17.2% in test [5].
Consider `Oc1ccc(C2Nc3ccccc3-n3c2cc2ccccc23)cc1` (stereo not given), for which the inhibition at 50 µg/mL is 58.3% in test [1]; 50.8% in test [2]; 39.2% in test [3]; 31.4% in test [4]; 52.1% in test [5].
Regarding `Cc1ccc2cc3n(c2c1)-c1ccccc1NC3c1ccc(O)cc1` (stereo not given), the inhibition at 50 µg/mL in test [1] was determined as 56.3%; in test [2], 43.7%; in test [3], 37.3%; in test [4], 49%; in test [5], 41.2%.
Turning to `Cc1ccc2cc3n(c2c1)-c1ccccc1NC3c1ccc([N+](=O)[O-])cc1` (stereo not given), the inhibition at 50 µg/mL was determined as 7.8% in test [1]; 1.6% in test [2]; 11.7% in test [3]; 13% in test [4]; 12.2% in test [5].
`Cc1c2n(c3ccccc13)-c1ccccc1NC2c1ccco1` (stereo not given): the inhibition at 50 µg/mL in test [1] was found to be 37.3%; in test [2], 33.4%; in test [3] it was 17.8%; in test [4] it was 30.1%; in test [5], 31.5%.
Take `Cc1cc(O)no1` [HYMEXAZOL]: the inhibition at 50 µg/mL in test [1] was determined as 68.8%; in test [2], 53.5%; in test [3], 62.7%; in test [4], 47.1%; in test [5], 57%.
Taken in the same sequence, the figures for `Cc1cccc2c1cc1n2-c2ccccc2NC1c1ccc(O)cc1` (stereo not given) were 72.9%, 50.8%, 41.2%, 55.9% and 51.3%.
